Columns and labels:
Cannabinoid receptor 2 = Cannabinoid receptor 2 (Homo sapiens, UniProt P34972); assay: Displacement of [3H]CP-55940 from human cloned CB2 receptor
Cannabinoid receptor 1 = Cannabinoid receptor 1 (Rattus norvegicus, UniProt P20272); assay: Displacement of [3H]CP-55940 from CB1 receptor in rat brain; format: tissue-based
Cannabinoid receptor 1, sequence (P20272 whole entry): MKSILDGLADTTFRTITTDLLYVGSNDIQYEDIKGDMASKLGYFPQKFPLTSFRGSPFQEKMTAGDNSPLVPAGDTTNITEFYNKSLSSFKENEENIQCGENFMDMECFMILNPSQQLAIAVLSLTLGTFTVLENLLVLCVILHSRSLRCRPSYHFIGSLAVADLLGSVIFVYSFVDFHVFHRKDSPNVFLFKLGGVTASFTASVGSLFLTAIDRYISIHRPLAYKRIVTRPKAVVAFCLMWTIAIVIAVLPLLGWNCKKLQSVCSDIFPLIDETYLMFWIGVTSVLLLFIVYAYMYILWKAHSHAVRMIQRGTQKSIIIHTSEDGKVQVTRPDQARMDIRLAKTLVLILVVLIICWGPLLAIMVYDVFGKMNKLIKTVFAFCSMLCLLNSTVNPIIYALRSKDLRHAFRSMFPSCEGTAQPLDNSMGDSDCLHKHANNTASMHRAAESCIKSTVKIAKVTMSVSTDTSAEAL

Cannabinoid receptor 2, sequence (P34972 whole entry): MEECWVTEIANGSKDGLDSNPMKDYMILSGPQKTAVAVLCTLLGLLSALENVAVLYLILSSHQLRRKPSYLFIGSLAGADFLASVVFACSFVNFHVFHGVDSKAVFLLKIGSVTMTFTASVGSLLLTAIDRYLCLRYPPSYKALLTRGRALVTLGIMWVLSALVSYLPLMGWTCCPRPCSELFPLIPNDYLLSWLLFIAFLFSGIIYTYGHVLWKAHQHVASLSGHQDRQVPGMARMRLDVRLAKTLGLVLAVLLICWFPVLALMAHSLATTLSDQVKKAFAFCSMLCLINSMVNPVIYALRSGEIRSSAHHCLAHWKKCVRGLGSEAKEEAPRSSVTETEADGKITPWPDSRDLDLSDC

CCCCCn1cc(C(=O)c2cccc3ccccc23)cc1-c1ccccc1OC
Ki (Cannabinoid receptor 2): 20 nM
Ki (Cannabinoid receptor 1): 29 nM

CCCCCn1cc(C(=O)c2cccc3ccccc23)cc1-c1cccc(Cl)c1
Ki (Cannabinoid receptor 2): 16 nM
Ki (Cannabinoid receptor 1): 70 nM

CCCCCn1cc(C(=O)c2cccc3ccccc23)cc1-c1ccc(OC)cc1
Ki (Cannabinoid receptor 2): 41 nM
Ki (Cannabinoid receptor 1): 285 nM

CCCCCn1cc(C(=O)c2cccc3ccccc23)cc1-c1cccc(OC)c1
Ki (Cannabinoid receptor 2): 23 nM
Ki (Cannabinoid receptor 1): 53 nM

CCCCCn1cc(C(=O)c2cccc3ccccc23)cc1-c1ccc(C(F)(F)F)cc1
Ki (Cannabinoid receptor 2): 53 nM
Ki (Cannabinoid receptor 1): 218 nM

CCCCCn1cc(C(=O)c2cccc3ccccc23)cc1-c1cccc(C(F)(F)F)c1
Ki (Cannabinoid receptor 2): 71 nM
Ki (Cannabinoid receptor 1): 245 nM

CCCCCn1cc(C(=O)c2cccc3ccccc23)cc1-c1cccc(C)c1
Ki (Cannabinoid receptor 2): 39 nM
Ki (Cannabinoid receptor 1): 67 nM

CCCCCn1cc(C(=O)c2cccc3ccccc23)cc1-c1cccc([N+](=O)[O-])c1
Ki (Cannabinoid receptor 2): 41 nM
Ki (Cannabinoid receptor 1): 100 nM

CCCCCn1cc(C(=O)c2cccc3ccccc23)cc1-c1ccc(CC)cc1
Ki (Cannabinoid receptor 2): 29 nM
Ki (Cannabinoid receptor 1): 34 nM

CCCCCn1cc(C(=O)c2cccc3ccccc23)cc1-c1ccc(Cl)cc1
Ki (Cannabinoid receptor 2): 25 nM
Ki (Cannabinoid receptor 1): 276 nM

CCCCCn1cc(C(=O)c2cccc3ccccc23)cc1-c1ccc(F)cc1
Ki (Cannabinoid receptor 2): 33 nM
Ki (Cannabinoid receptor 1): 41 nM

CCCCCn1cc(C(=O)c2cccc3ccccc23)cc1-c1ccccc1CC
Ki (Cannabinoid receptor 2): 3.4 nM
Ki (Cannabinoid receptor 1): 17 nM

CCCn1cc(C(=O)c2cccc3ccccc23)cc1-c1ccccc1
Ki (Cannabinoid receptor 2): 104 nM
Ki (Cannabinoid receptor 1): 404 nM

CCCCCn1cc(C(=O)c2cccc3ccccc23)cc1-c1cccc(F)c1
Ki (Cannabinoid receptor 2): 9.1 nM
Ki (Cannabinoid receptor 1): 16 nM

CCCCCCn1cc(C(=O)c2cccc3ccccc23)cc1-c1ccccc1
Ki (Cannabinoid receptor 2): 7.1 nM
Ki (Cannabinoid receptor 1): 11 nM

CCCCCn1cc(C(=O)c2cccc3ccccc23)cc1-c1ccccc1C
Ki (Cannabinoid receptor 2): 4 nM
Ki (Cannabinoid receptor 1): 5.6 nM

CCCCCn1cc(C(=O)c2cccc3ccccc23)cc1-c1ccccc1CCCC
Ki (Cannabinoid receptor 2): 69 nM
Ki (Cannabinoid receptor 1): 60 nM

CCCCCn1cc(C(=O)c2cccc3ccccc23)cc1-c1ccccc1F
Ki (Cannabinoid receptor 2): 3.3 nM
Ki (Cannabinoid receptor 1): 7.7 nM

CCCCCn1cc(C(=O)c2cccc3ccccc23)cc1-c1ccc(CCCC)cc1
Ki (Cannabinoid receptor 2): 64 nM
Ki (Cannabinoid receptor 1): 42 nM

CCCCn1cc(C(=O)c2cccc3ccccc23)cc1-c1ccccc1
Ki (Cannabinoid receptor 2): 15 nM
Ki (Cannabinoid receptor 1): 60 nM

CCCCCn1cc(C(=O)c2cccc3ccccc23)cc1-c1ccccc1Cl
Ki (Cannabinoid receptor 2): 5.2 nM
Ki (Cannabinoid receptor 1): 7.9 nM

CCCCCCCn1cc(C(=O)c2cccc3ccccc23)cc1-c1ccccc1
Ki (Cannabinoid receptor 2): 62 nM
Ki (Cannabinoid receptor 1): 21 nM

CCCCCn1cc(C(=O)c2cccc3ccccc23)cc1-c1cccnc1
Ki (Cannabinoid receptor 2): 24 nM
Ki (Cannabinoid receptor 1): 191 nM

CCCCCn1cc(C(=O)c2cccc3ccccc23)cc1-c1cccc2ccccc12
Ki (Cannabinoid receptor 2): 49 nM
Ki (Cannabinoid receptor 1): 41 nM

CCCCCn1cc(C(=O)c2cccc3ccccc23)cc1-c1ccccc1
Ki (Cannabinoid receptor 2): 6.4 nM
Ki (Cannabinoid receptor 1): 14 nM

CCCCCn1cc(C(=O)c2cccc3ccccc23)cc1-c1ccccc1C(F)(F)F
Ki (Cannabinoid receptor 2): 8.2 nM
Ki (Cannabinoid receptor 1): 77 nM

CCCCCn1cc(C(=O)c2cccc3ccccc23)cc1-c1ccc2ccccc2c1
Ki (Cannabinoid receptor 2): 169 nM
Ki (Cannabinoid receptor 1): 333 nM

CCCCCn1cc(C(=O)c2cccc3ccccc23)cc1-c1ccc(C)cc1
Ki (Cannabinoid receptor 2): 18 nM
Ki (Cannabinoid receptor 1): 130 nM
